How the values were obtained:
Assay in all cases: radiometric filter-binding kinase assay
PRKACA (human) = PRKACA (human) (UniProt P17612)
GCK (human) = GCK (human) (UniProt Q12851)
IGF1R (human) = IGF1R (human) (UniProt P08069)
TBK1 (human) = TBK1 (human) (UniProt Q9UHD2)
MAP3K9 (human) = MAP3K9 (human) (UniProt P80192)
PTK6 (human) = PTK6 (human) (UniProt Q13882)
PAK4 (human) = PAK4 (human) (UniProt O96013)
MARK3 (human) = MARK3 (human) (UniProt P27448)
PRKCA (human) = PRKCA (human) (UniProt P17252)
IRAK1 (human) = IRAK1 (human) (UniProt P51617)
MYLK (human) = MYLK (human) (UniProt Q15746)
Sequence of MYLK (human) (Q15746 whole entry, looked up): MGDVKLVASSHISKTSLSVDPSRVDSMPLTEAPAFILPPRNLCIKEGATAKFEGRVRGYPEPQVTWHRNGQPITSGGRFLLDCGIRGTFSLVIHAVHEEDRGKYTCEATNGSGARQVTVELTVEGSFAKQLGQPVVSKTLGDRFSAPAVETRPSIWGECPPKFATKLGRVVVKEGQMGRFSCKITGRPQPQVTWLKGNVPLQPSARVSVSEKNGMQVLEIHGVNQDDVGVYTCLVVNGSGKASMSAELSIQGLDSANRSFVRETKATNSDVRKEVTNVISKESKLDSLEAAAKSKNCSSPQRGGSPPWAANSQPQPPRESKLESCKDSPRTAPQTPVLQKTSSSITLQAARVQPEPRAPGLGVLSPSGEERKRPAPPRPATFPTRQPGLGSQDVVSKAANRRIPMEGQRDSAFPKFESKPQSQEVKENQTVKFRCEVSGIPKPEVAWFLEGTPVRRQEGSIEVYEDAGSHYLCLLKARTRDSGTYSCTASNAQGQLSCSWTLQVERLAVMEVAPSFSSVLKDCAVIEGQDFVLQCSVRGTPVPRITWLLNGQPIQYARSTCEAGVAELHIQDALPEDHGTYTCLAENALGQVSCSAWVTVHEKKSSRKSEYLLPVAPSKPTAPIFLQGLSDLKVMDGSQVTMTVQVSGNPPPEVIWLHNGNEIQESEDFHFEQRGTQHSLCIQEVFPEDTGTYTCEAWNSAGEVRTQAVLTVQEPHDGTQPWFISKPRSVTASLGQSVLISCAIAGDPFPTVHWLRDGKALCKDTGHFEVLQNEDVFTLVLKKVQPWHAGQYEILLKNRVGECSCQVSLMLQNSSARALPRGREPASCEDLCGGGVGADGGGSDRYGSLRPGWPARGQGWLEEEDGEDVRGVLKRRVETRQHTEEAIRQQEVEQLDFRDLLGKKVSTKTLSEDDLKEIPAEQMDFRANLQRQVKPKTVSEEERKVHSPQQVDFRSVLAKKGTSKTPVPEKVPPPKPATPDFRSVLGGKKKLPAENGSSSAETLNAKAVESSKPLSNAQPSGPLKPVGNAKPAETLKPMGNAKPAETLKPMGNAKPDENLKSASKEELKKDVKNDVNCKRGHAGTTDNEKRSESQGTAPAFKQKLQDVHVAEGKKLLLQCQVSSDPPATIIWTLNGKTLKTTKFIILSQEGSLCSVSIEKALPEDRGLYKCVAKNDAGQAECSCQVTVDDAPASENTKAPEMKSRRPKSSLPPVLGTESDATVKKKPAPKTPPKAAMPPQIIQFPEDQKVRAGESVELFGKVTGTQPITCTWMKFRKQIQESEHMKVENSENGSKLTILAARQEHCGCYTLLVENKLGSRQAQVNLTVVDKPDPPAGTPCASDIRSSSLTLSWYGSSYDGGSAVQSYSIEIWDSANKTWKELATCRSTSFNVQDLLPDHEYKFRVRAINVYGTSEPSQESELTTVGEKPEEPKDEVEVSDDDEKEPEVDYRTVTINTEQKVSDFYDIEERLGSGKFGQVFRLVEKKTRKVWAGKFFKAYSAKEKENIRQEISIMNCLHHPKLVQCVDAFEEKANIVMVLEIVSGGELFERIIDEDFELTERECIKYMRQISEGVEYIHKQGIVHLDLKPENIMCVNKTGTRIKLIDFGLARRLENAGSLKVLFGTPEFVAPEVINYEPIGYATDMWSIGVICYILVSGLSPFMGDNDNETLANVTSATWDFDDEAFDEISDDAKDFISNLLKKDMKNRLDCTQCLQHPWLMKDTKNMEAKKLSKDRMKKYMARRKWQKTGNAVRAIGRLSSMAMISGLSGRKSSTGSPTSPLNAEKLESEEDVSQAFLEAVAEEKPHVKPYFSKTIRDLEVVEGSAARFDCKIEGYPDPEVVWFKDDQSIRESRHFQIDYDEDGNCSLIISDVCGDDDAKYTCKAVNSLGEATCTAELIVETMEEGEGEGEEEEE

MAP3K1 (human) = MAP3K1 (human) (UniProt Q13233)
PLK1 (human) = PLK1 (human) (UniProt P53350)
[1] = tested on: PAK2 (human), Q13177 [T402E]
Sequence of PAK2 (human), Q13177 [T402E] (Q13177 whole entry T402E, looked up): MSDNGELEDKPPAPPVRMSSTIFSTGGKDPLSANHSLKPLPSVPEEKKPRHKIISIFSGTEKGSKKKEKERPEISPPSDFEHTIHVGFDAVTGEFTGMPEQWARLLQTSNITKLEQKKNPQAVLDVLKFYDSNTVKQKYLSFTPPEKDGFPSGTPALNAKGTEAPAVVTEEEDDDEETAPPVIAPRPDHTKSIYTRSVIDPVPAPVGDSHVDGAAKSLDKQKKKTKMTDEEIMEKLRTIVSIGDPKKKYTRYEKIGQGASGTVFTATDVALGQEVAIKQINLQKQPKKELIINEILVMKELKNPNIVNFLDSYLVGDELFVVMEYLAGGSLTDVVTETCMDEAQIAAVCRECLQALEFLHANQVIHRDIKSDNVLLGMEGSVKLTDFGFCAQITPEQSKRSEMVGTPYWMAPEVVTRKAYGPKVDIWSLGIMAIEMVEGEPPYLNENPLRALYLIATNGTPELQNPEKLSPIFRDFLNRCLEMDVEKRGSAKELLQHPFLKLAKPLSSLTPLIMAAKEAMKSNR

[2] = tested on: AKT1 (human), P31749 [S473D]
BRSK2 (human) = BRSK2 (human) (UniProt Q8IWQ3)
RPS6KA1 KD1 KD2 (human) = RPS6KA1 KD1 KD2 (human) (UniProt Q15418)
Sequence of RPS6KA1 KD1 KD2 (human) (Q15418 whole entry, looked up): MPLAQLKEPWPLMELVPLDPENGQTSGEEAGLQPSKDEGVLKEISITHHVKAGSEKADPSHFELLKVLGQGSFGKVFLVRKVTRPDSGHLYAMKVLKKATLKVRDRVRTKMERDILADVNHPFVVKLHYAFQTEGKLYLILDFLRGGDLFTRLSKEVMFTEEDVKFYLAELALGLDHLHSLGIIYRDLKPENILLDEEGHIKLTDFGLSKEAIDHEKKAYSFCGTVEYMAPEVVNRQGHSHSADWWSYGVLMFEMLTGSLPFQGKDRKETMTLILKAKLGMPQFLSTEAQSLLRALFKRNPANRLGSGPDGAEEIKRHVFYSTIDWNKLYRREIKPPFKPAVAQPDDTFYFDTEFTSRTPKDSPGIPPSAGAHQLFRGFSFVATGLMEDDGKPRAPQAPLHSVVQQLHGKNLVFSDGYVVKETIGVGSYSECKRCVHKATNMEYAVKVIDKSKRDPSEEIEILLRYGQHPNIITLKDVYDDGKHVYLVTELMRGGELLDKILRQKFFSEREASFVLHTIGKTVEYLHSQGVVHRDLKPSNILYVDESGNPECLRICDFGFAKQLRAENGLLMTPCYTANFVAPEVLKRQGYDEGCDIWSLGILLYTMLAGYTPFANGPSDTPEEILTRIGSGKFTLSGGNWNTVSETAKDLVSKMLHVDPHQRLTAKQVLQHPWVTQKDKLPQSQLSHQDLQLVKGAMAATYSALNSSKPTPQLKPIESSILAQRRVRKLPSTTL

PIM3 (human) = PIM3 (human) (UniProt Q86V86)
NTRK1 (human) = NTRK1 (human) (UniProt P04629)
HIPK1 (human) = HIPK1 (human) (UniProt Q86Z02)
CSNK2A1 (human) = CSNK2A1 (human) (UniProt P68400)
DYRK1A (human) = DYRK1A (human) (UniProt Q13627)
CHEK2 (human) = CHEK2 (human) (UniProt O96017)
Sequence of CHEK2 (human) (O96017 whole entry, looked up): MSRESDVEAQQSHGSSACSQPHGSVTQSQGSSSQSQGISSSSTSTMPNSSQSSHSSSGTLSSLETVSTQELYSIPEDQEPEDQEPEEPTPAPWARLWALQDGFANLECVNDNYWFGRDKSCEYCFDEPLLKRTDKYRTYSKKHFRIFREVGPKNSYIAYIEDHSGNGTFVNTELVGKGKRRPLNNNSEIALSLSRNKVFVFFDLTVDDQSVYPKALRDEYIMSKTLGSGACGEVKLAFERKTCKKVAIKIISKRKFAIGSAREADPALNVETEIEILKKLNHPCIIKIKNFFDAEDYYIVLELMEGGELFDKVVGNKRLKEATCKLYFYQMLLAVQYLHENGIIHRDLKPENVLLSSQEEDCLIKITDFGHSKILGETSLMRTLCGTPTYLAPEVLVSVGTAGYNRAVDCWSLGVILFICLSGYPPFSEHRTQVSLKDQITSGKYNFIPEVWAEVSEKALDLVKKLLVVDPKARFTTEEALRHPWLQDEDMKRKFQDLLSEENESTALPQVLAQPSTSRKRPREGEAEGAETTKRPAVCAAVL

MARK4 (human) = MARK4 (human) (UniProt Q96L34)
PAK7 (human) = PAK7 (human) (UniProt Q9P286)
ABL1 (human) = ABL1 (human) (UniProt P00519)
MELK (human) = MELK (human) (UniProt Q14680)
EIF2AK3 (human) = EIF2AK3 (human) (UniProt Q9NZJ5)

Sequence of IGF1R (human) (P08069 whole entry, looked up): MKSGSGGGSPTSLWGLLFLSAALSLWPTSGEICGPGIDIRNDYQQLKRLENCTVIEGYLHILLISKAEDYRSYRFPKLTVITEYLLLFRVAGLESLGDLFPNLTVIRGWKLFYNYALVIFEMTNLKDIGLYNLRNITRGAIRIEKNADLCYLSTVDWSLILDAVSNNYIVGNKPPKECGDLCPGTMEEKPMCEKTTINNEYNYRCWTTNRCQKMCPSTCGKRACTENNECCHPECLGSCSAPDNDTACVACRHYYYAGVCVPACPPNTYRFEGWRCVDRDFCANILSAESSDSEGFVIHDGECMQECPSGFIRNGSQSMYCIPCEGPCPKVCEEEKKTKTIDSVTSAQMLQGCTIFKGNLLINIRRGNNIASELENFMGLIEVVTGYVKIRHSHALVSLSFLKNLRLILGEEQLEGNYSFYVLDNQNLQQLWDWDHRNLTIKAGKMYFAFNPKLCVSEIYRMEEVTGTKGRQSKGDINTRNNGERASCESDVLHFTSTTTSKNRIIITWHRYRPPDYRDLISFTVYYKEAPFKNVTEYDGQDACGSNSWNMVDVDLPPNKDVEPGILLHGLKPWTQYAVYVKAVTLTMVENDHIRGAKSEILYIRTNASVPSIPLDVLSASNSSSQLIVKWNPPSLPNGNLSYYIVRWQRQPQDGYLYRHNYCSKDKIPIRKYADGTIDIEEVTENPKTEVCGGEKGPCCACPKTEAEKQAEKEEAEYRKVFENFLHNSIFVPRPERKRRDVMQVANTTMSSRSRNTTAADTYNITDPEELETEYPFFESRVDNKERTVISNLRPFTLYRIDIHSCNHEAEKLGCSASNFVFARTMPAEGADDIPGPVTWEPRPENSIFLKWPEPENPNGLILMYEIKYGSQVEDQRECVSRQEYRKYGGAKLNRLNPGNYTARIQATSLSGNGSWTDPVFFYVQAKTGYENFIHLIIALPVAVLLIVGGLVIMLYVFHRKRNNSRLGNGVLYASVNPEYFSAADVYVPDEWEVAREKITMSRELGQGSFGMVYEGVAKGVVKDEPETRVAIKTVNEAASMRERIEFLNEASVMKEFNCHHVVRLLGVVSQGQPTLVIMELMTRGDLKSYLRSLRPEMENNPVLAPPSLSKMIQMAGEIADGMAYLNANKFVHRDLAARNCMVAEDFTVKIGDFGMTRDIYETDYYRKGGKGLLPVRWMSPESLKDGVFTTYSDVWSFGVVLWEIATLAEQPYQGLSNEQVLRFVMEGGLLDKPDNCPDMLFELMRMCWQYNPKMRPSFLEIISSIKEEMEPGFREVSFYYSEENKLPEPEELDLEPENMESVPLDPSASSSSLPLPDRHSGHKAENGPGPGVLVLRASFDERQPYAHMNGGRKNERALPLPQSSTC

residual activity (PRKACA (human); compound 0.1 µM): 100%
residual activity (PRKACA (human); compound 1.0 µM): 93.4%
residual activity (PRKACA (human); compound 10.0 µM): 76.2%
residual activity (GCK (human); compound 0.1 µM): 24.1%
residual activity (GCK (human); compound 1.0 µM): 12.3%
residual activity (GCK (human); compound 10.0 µM): 9.08%
residual activity (IGF1R (human); compound 0.1 µM): 107%
residual activity (IGF1R (human); compound 1.0 µM): 84.8%
residual activity (IGF1R (human); compound 10.0 µM): 6.46%
residual activity (TBK1 (human); compound 0.1 µM): 113%
residual activity (TBK1 (human); compound 1.0 µM): 100%
residual activity (TBK1 (human); compound 10.0 µM): 96%
residual activity (MAP3K9 (human); compound 0.1 µM): 106%
residual activity (MAP3K9 (human); compound 1.0 µM): 90%
residual activity (MAP3K9 (human); compound 10.0 µM): 39.6%
residual activity (PTK6 (human); compound 0.1 µM): 101%
residual activity (PTK6 (human); compound 1.0 µM): 43.1%
residual activity (PTK6 (human); compound 10.0 µM): 6.76%
residual activity (PAK4 (human); compound 0.1 µM): 109%
residual activity (PAK4 (human); compound 1.0 µM): 99.4%
residual activity (PAK4 (human); compound 10.0 µM): 77.8%
residual activity (MARK3 (human); compound 0.1 µM): 112%
residual activity (MARK3 (human); compound 1.0 µM): 99.5%
residual activity (MARK3 (human); compound 10.0 µM): 105%
residual activity (PRKCA (human); compound 0.1 µM): 94%
residual activity (PRKCA (human); compound 1.0 µM): 84.4%
residual activity (PRKCA (human); compound 10.0 µM): 90.5%
residual activity (IRAK1 (human); compound 0.1 µM): 80.9%
residual activity (IRAK1 (human); compound 1.0 µM): 72.2%
residual activity (IRAK1 (human); compound 10.0 µM): 33.4%
residual activity (MYLK (human); compound 0.1 µM): 109%
residual activity (MYLK (human); compound 1.0 µM): 89.4%
residual activity (MYLK (human); compound 10.0 µM): 76.7%
residual activity (MAP3K1 (human); compound 0.1 µM): 127%
residual activity (MAP3K1 (human); compound 1.0 µM): 111%
residual activity (MAP3K1 (human); compound 10.0 µM): 108%
residual activity (PLK1 (human); compound 0.1 µM): 103%
residual activity (PLK1 (human); compound 1.0 µM): 91.6%
residual activity (PLK1 (human); compound 10.0 µM): 95%
residual activity ([1]; compound 0.1 µM): 116%
residual activity ([1]; compound 1.0 µM): 100%
residual activity ([1]; compound 10.0 µM): 68.6%
residual activity ([2]; compound 0.1 µM): 105%
residual activity ([2]; compound 1.0 µM): 100%
residual activity ([2]; compound 10.0 µM): 69%
residual activity (BRSK2 (human); compound 0.1 µM): 100%
residual activity (BRSK2 (human); compound 1.0 µM): 94.8%
residual activity (BRSK2 (human); compound 10.0 µM): 88.8%
residual activity (RPS6KA1 KD1 KD2 (human); compound 0.1 µM): 107%
residual activity (RPS6KA1 KD1 KD2 (human); compound 1.0 µM): 84.3%
residual activity (RPS6KA1 KD1 KD2 (human); compound 10.0 µM): 37.9%
residual activity (PIM3 (human); compound 0.1 µM): 107%
residual activity (PIM3 (human); compound 1.0 µM): 108%
residual activity (PIM3 (human); compound 10.0 µM): 98.9%
residual activity (NTRK1 (human); compound 0.1 µM): 111%
residual activity (NTRK1 (human); compound 1.0 µM): 77.7%
residual activity (NTRK1 (human); compound 10.0 µM): 43.4%
residual activity (HIPK1 (human); compound 0.1 µM): 95%
residual activity (HIPK1 (human); compound 1.0 µM): 70.8%
residual activity (HIPK1 (human); compound 10.0 µM): 28.7%
residual activity (CSNK2A1 (human); compound 0.1 µM): 90.2%
residual activity (CSNK2A1 (human); compound 1.0 µM): 94.1%
residual activity (CSNK2A1 (human); compound 10.0 µM): 98.5%
residual activity (DYRK1A (human); compound 0.1 µM): 107%
residual activity (DYRK1A (human); compound 1.0 µM): 97.8%
residual activity (DYRK1A (human); compound 10.0 µM): 84.9%
residual activity (CHEK2 (human); compound 0.1 µM): 117%
residual activity (CHEK2 (human); compound 1.0 µM): 103%
residual activity (CHEK2 (human); compound 10.0 µM): 67.9%
residual activity (MARK4 (human); compound 0.1 µM): 116%
residual activity (MARK4 (human); compound 1.0 µM): 104%
residual activity (MARK4 (human); compound 10.0 µM): 88.7%
residual activity (PAK7 (human); compound 0.1 µM): 108%
residual activity (PAK7 (human); compound 1.0 µM): 104%
residual activity (PAK7 (human); compound 10.0 µM): 87.5%
residual activity (ABL1 (human); compound 0.1 µM): 51.4%
residual activity (ABL1 (human); compound 1.0 µM): 3.77%
residual activity (ABL1 (human); compound 10.0 µM): 0.874%
residual activity (MELK (human); compound 0.1 µM): 115%
residual activity (MELK (human); compound 1.0 µM): 99.5%
residual activity (MELK (human); compound 10.0 µM): 64.1%
residual activity (EIF2AK3 (human); compound 0.1 µM): 98.8%
residual activity (EIF2AK3 (human); compound 1.0 µM): 64.6%
residual activity (EIF2AK3 (human); compound 10.0 µM): 21.4%
Structure (SMILES): CCN1CCN(Cc2ccc(NC(=O)c3ccc(C)c(Oc4ccnc5[nH]ccc45)c3)cc2C(F)(F)F)CC1
